Experiments:
Test in all cases: relative viability (nuclei count vs DMSO), 5 days (fraction); higher = more cells survive
[1] = tested on: NCI-H1915
In short: (§1)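 Values are medians from duplicate plates. Each reflects relative viability, defined as the nuclei count of treated wells over that of vehicle wells. Lung cancer cell lines in 1536-well plates were pin-tool dosed one day after seeding with one drug alone or with a fixed anchor-drug dose plus five library-drug doses (not always all listed) in √10 steps, then fixed, stained and imaged at 4× after 5 days.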

[2] = tested on: NCI-H1993
In short: as §1

[3] = tested on: HARA
In short: as §1

[4] = tested on: NCI-H2023
In short: as §1

[5] = tested on: NCI-H2085
In short: as §1

[6] = tested on: LC-2-ad
In short: as §1

[7] = tested on: NCI-H1355
In short: as §1

[8] = tested on: NCI-H650
In short: as §1

[9] = tested on: EPLC-272H
In short: as §1

[10] = tested on: NCI-H1651
In short: as §1

[11] = tested on: HCC-15
In short: as §1

[12] = tested on: HCC-78
In short: as §1

[13] = tested on: SW 1573
In short: as §1

[14] = tested on: NCI-H2126
In short: as §1

[15] = tested on: NCI-H2347
In short: as §1

[16] = tested on: ABC-1
In short: as §1

[17] = tested on: PC-14
In short: as §1

[18] = tested on: UMC-11
In short: as §1

[19] = tested on: COR-L23
In short: as §1

[20] = tested on: NCI-H838
In short: as §1

[21] = tested on: LU99A
In short: as §1

C=C1C(=O)O[C@@H](CCCCCCCC)[C@@H]1C(=O)O [C-75] + CC(C)C[C@H](NC(=O)[C@H](Cc1ccccc1)NC(=O)c1cnccn1)B(O)O [Bortezomib] (partner 0.002 µM)
relative viability ([1]; first compound 0.08 µM): 0.89
relative viability ([1]; first compound 0.253 µM): 0.977
relative viability ([1]; first compound 0.8 µM): 0.935
relative viability ([1]; first compound 2.53 µM): 0.81
relative viability ([1]; first compound 8 µM): 0.922
relative viability ([2]; first compound 0.08 µM): 0.951
relative viability ([2]; first compound 0.253 µM): 1.24
relative viability ([2]; first compound 0.8 µM): 1.08
relative viability ([2]; first compound 2.53 µM): 0.54
relative viability ([2]; first compound 8 µM): 1.09
relative viability ([3]; first compound 0.08 µM): 1.14
relative viability ([3]; first compound 0.253 µM): 1.22
relative viability ([3]; first compound 0.8 µM): 1.07
relative viability ([3]; first compound 8 µM): 1.26
relative viability ([4]; first compound 0.08 µM): 1.04
relative viability ([4]; first compound 0.253 µM): 1.22
relative viability ([4]; first compound 0.8 µM): 0.902
relative viability ([4]; first compound 2.53 µM): 0.843
relative viability ([4]; first compound 8 µM): 0.835
relative viability ([5]; first compound 0.08 µM): 1.13
relative viability ([5]; first compound 0.253 µM): 0.882
relative viability ([5]; first compound 0.8 µM): 0.999
relative viability ([5]; first compound 2.53 µM): 0.76
relative viability ([5]; first compound 8 µM): 0.897
relative viability ([6]; first compound 0.08 µM): 1.04
relative viability ([6]; first compound 0.253 µM): 0.97
relative viability ([6]; first compound 0.8 µM): 0.985
relative viability ([6]; first compound 8 µM): 0.961
relative viability ([7]; first compound 0.08 µM): 1.24
relative viability ([7]; first compound 0.253 µM): 1.28
relative viability ([7]; first compound 0.8 µM): 1.07
relative viability ([7]; first compound 2.53 µM): 1.1
relative viability ([7]; first compound 8 µM): 1.21
relative viability ([8]; first compound 0.08 µM): 0.828
relative viability ([8]; first compound 0.253 µM): 0.691
relative viability ([8]; first compound 0.8 µM): 0.547
relative viability ([8]; first compound 2.53 µM): 0.745
relative viability ([8]; first compound 8 µM): 0.586
relative viability ([9]; first compound 0.08 µM): 1.03
relative viability ([9]; first compound 0.253 µM): 0.845
relative viability ([9]; first compound 0.8 µM): 0.792
relative viability ([9]; first compound 2.53 µM): 0.833
relative viability ([9]; first compound 8 µM): 0.913
relative viability ([10]; first compound 0.08 µM): 0.92
relative viability ([10]; first compound 0.253 µM): 0.894
relative viability ([10]; first compound 0.8 µM): 0.875
relative viability ([10]; first compound 2.53 µM): 0.843
relative viability ([10]; first compound 8 µM): 0.886
relative viability ([11]; first compound 0.08 µM): 1.04
relative viability ([11]; first compound 0.253 µM): 1.05
relative viability ([11]; first compound 0.8 µM): 0.944
relative viability ([11]; first compound 2.53 µM): 0.943
relative viability ([11]; first compound 8 µM): 1.01
relative viability ([12]; first compound 0.08 µM): 0.507
relative viability ([12]; first compound 0.253 µM): 0.412
relative viability ([12]; first compound 0.8 µM): 0.386
relative viability ([12]; first compound 2.53 µM): 0.423
relative viability ([12]; first compound 8 µM): 0.472
relative viability ([13]; first compound 0.08 µM): 1.05
relative viability ([13]; first compound 0.253 µM): 0.949
relative viability ([13]; first compound 0.8 µM): 1.03
relative viability ([13]; first compound 2.53 µM): 1.07
relative viability ([13]; first compound 8 µM): 0.912
relative viability ([14]; first compound 0.08 µM): 1.1
relative viability ([14]; first compound 0.253 µM): 1.29
relative viability ([14]; first compound 0.8 µM): 1.09
relative viability ([14]; first compound 2.53 µM): 0.886
relative viability ([14]; first compound 8 µM): 1.08
relative viability ([15]; first compound 0.08 µM): 1.06
relative viability ([15]; first compound 0.253 µM): 1.09
relative viability ([15]; first compound 2.53 µM): 0.851
relative viability ([15]; first compound 8 µM): 0.741
relative viability ([16]; first compound 0.08 µM): 0.295
relative viability ([16]; first compound 0.253 µM): 0.314
relative viability ([16]; first compound 0.8 µM): 0.373
relative viability ([16]; first compound 2.53 µM): 0.178
relative viability ([16]; first compound 8 µM): 0.234
relative viability ([17]; first compound 0.08 µM): 0.853
relative viability ([17]; first compound 0.253 µM): 0.969
relative viability ([17]; first compound 0.8 µM): 0.94
relative viability ([17]; first compound 2.53 µM): 0.726
relative viability ([17]; first compound 8 µM): 0.965
relative viability ([18]; first compound 0.08 µM): 0.691
relative viability ([18]; first compound 0.253 µM): 0.761
relative viability ([18]; first compound 0.8 µM): 0.804
relative viability ([18]; first compound 2.53 µM): 0.575
relative viability ([18]; first compound 8 µM): 0.604
relative viability ([19]; first compound 0.08 µM): 0.953
relative viability ([19]; first compound 0.253 µM): 1.05
relative viability ([19]; first compound 0.8 µM): 0.946
relative viability ([19]; first compound 2.53 µM): 0.698
relative viability ([19]; first compound 8 µM): 0.818
relative viability ([20]; first compound 0.08 µM): 0.66
relative viability ([20]; first compound 0.253 µM): 0.588
relative viability ([20]; first compound 0.8 µM): 0.8
relative viability ([20]; first compound 2.53 µM): 0.656
relative viability ([20]; first compound 8 µM): 0.684
relative viability ([21]; first compound 0.08 µM): 1.1
relative viability ([21]; first compound 0.253 µM): 1.03
relative viability ([21]; first compound 0.8 µM): 1.08
relative viability ([21]; first compound 2.53 µM): 0.933
relative viability ([21]; first compound 8 µM): 0.885

From the supplement of paper PMC10307832
